Laboratory results from US20240122182A1, “PESTICIDALLY ACTIVE HETEROCYCLIC DERIVATIVES WITH SULFUR CONTAINING SUBSTITUENTS” (SYNGENTA CROP PROTECTION AG, priority 2021, published 2024).

Key:
Format in all cases: in vivo
[1] = tested on: Spodoptera littoralis (Egyptian Cotton Leaf Worm); experiment: Activity against Spodoptera littoralis (Egyptian cotton leaf worm), cotton leaf discs sprayed; settings: foliar, 72 h, application rate of 200 ppm, L1 larvae, 3 days after infestation, read-out: control (mortality, anti-feeding effect, growth inhibition)
Method: Cotton leaf discs were placed onto agar in 24-well microtiter plates and sprayed with aqueous test solutions prepared from 10′000 ppm DMSO stock solutions. After drying the leaf discs were infested with five L1 larvae. The samples were assessed for mortality, anti-feeding effect, and growth inhibition in comparison to untreated samples 3 days after infestation. Control of Spodoptera littoralis by a test sample is given when at least one of the categories mortality, anti-feedant effect, and growth inhibition is higher than the untreated sample.

[2] = tested on: Myzus persicae (Green Peach Aphid); experiment: Activity against Myzus persicae (green peach aphid), feeding/contact activity; settings: 144 h, application rate of 200 ppm, mixed ages, 6 days after infestation
Method: Sunflower leaf discs were placed onto agar in a 24-well microtiter plate and sprayed with aqueous test solutions prepared from 10′000 ppm DMSO stock solutions. After drying, the leaf discs were infested with an aphid population of mixed ages. The samples were assessed for mortality 6 days after infestation.

[3] = tested on: Chilo suppressalis (Striped Rice Stemborer); experiment: Activity against Chilo suppressalis (striped rice stemborer), artificial diet; settings: 144 h, application rate of 200 ppm, L2 larvae, 6 days after infestation, read-out: control (mortality, anti-feeding effect, growth inhibition)
Method: 24-well microtiter plates with artificial diet were treated with aqueous test solutions prepared from 10′000 ppm DMSO stock solutions by pipetting. After drying, the plates were infested with L2 larvae (6-8 per well). The samples were assessed for mortality, anti-feeding effect, and growth inhibition in comparison to untreated samples 6 days after infestation. Control of Chilo suppressalis by a test sample is given when at least one of the categories mortality, anti-feedant effect, and growth inhibition is higher than the untreated sample.

[4] = tested on: Diabrotica Balteata (Corn Root Worm); experiment: Activity against Diabrotica balteata (corn root worm), maize sprouts sprayed; settings: 96 h, application rate of 200 ppm, L2 larvae, 4 days after infestation, read-out: effect in at least one of the two categories (mortality or growth inhibition)
Method: Maize sprouts placed onto an agar layer in 24-well microtiter plates were treated with aqueous test solutions prepared from 10′000 ppm DMSO stock solutions by spraying. After drying, the plates were infested with L2 larvae (6 to 10 per well). The samples were assessed for mortality and growth inhibition in comparison to untreated samples 4 days after infestation.

[5] = tested on: Nilaparvata lugens (Brown Plant Hopper); experiment: Activity against Nilaparvata lugens (brown plant hopper), larvicide, systemic into water; settings: 168 h, application rate of 12.5 ppm, N3 nymphs, 7 days after infestation
Method: Larvicide, systemic into water Rice plants cultivated in a nutritive solution were treated with the diluted test solutions into nourishing cultivation system. 1 day after application plants were infested with ˜20 N3 nymphs. 7 days after infestation samples were assessed for mortality and growth regulation.

[6] = tested on: Euschistus heros (Neotropical Brown Stink Bug); experiment: Activity against Euschistus heros (neotropical brown stink bug), soybean leaves sprayed; settings: 120 h, application rate of 200 ppm, N2 nymphs, 5 days after infestation, read-out: effect in at least one of the two categories (mortality or growth inhibition)
Method: Soybean leaves on agar in 24-well microtiter plates were sprayed with aqueous test solutions prepared from 10′000 ppm DMSO stock solutions. After drying the leaves were infested with N2 nymphs. The samples were assessed for mortality and growth inhibition in comparison to untreated samples 5 days after infestation.

[7] = tested on: Plutella xylostella (Diamond Back Moth); experiment: Activity against Plutella xylostella (diamond back moth), artificial diet; settings: 192 h, application rate of 200 ppm, eggs, 8 days after infestation, read-out: effect in at least one of the two categories (mortality or growth inhibition)
Method: 24-well microtiter plates with artificial diet were treated with aqueous test solutions prepared from 10′000 ppm DMSO stock solutions by pipetting. After drying, Plutella eggs were pipetted through a plastic stencil onto a gel blotting paper and the plate was closed with it. The samples were assessed for mortality and growth inhibition in comparison to untreated samples 8 days after infestation.

[8] = tested on: Carpocapsa (Cydia) Pomonella (Codling Moth); experiment: Activity against Carpocapsa (Cydia) pomonella (codling moth), larvicide, feeding/contact; settings: 336 h, application rate of 12.5 ppm, L1 larvae, 14 days after infestation, read-out: effect in at least one of the two categories (mortality or growth inhibition)
Method: Diet cubes coated with paraffin were sprayed with diluted test solutions in an application chamber. After drying off the treated cubes (10 replicates) were infested with 1 L1 larvae. Samples were incubated at 26-27° C. and checked 14 days after infestation for mortality and growth inhibition. The following compounds gave an effect of at least 80% in at least one of the two categories (mortality or growth inhibition) at an application rate of 12.5 ppm: P1, P2, P3, P5, P9, P10, P11, P12, P14, P17, P19, P20, P21, P23, P24, P30, P31.

[9] = tested on: Myzus persicae (Green Peach Aphid); experiment: Activity against Myzus persicae (green peach aphid), systemic activity; settings: 144 h, test rate of 24 ppm, pea seedling roots in test solution, 6 days
Method: Roots of pea seedlings infested with an aphid population of mixed ages were placed directly into aqueous test solutions prepared from 10′000 DMSO stock solutions. The samples were assessed for mortality 6 days after placing seedlings into test solutions.

CCS(=O)(=O)c1cc(OC(C)(C)C#N)cnc1-c1cc2c(cn1)N(CC(F)(F)C(F)(F)F)C(=O)CC2 [P20, 2-[[5-ethylsulfonyl-6-[2-oxo-1-(2,2,3,3,3-pentafluoropropyl)-3,4-dihydro-1,7-naphthyridin-6-yl]-3-pyridyl]oxy]-2-methyl-propanenitrile]
≥ 80%: mortality at 200 ppm [1] | mortality at 200 ppm [2] | mortality at 200 ppm [3] | percent effect (mortality or growth inhibition) at 200 ppm [4] | mortality at 12.5 ppm [5] | percent effect (mortality or growth inhibition) at 200 ppm [6] | percent effect (mortality or growth inhibition) at 200 ppm [7] | percent effect (mortality or growth inhibition) at 12.5 ppm [8]

CCS(=O)(=O)c1cc(OCC(C)(F)F)cnc1-c1cc2c(cn1)N(CC(F)(F)C(F)(F)F)C(=O)CC2 [P24, 6-[5-(2,2-difluoropropoxy)-3-ethylsulfonyl-2-pyridyl]-1-(2,2,3,3,3-pentafluoropropyl)-3,4-dihydro-1,7-naphthyridin-2-one]
≥ 80%: mortality at 200 ppm [1] | mortality at 200 ppm [2] | mortality at 200 ppm [3] | percent effect (mortality or growth inhibition) at 200 ppm [4] | mortality at 12.5 ppm [5] | percent effect (mortality or growth inhibition) at 200 ppm [6] | percent effect (mortality or growth inhibition) at 200 ppm [7] | percent effect (mortality or growth inhibition) at 12.5 ppm [8]

CCS(=O)(=O)c1cc(C2(C#N)CC2)cnc1-c1cc2c(cn1)N(CC(F)(F)F)C(=O)OC2 [P34, 1-[5-ethylsulfonyl-6-[2-oxo-1-(2,2,2-trifluoroethyl)-4H-pyrido[3,4-d][1,3]oxazin-6-yl]-3-pyridyl]cyclopropanecarbonitrile]
≥ 80%: mortality at 200 ppm [2] | percent effect (mortality or growth inhibition) at 200 ppm [4] | mortality at 24 ppm [9] | percent effect (mortality or growth inhibition) at 200 ppm [7]

CCS(=O)(=O)c1cc(N(C)C(C)=O)cnc1-c1cc2c(cn1)N(CC(F)(F)C(F)(F)F)C(=O)CC2 [P8, N-[5-ethylsulfonyl-6-[2-oxo-1-(2,2,3,3,3-pentafluoropropyl)-3,4-dihydro-1,7-naphthyridin-6-yl]-3-pyridyl]-N-methyl-acetamide]
≥ 80%: mortality at 200 ppm [1] | mortality at 200 ppm [2] | mortality at 200 ppm [3] | mortality at 24 ppm [9] | percent effect (mortality or growth inhibition) at 200 ppm [6] | percent effect (mortality or growth inhibition) at 200 ppm [7]

CCS(=O)(=O)c1cc(C(F)(F)F)cnc1-c1cc2c(cn1)N(CC(F)(F)C(F)(F)F)C(=O)OC2 [P10, 6-[3-ethylsulfonyl-5-(trifluoromethyl)-2-pyridyl]-1-(2,2,3,3,3-pentafluoropropyl)-4H-pyrido[3,4-d][1,3]oxazin-2-one]
≥ 80%: mortality at 200 ppm [1] | mortality at 200 ppm [2] | mortality at 200 ppm [3] | percent effect (mortality or growth inhibition) at 200 ppm [4] | mortality at 12.5 ppm [5] | percent effect (mortality or growth inhibition) at 200 ppm [7] | percent effect (mortality or growth inhibition) at 12.5 ppm [8]

CCS(=O)(=O)c1cc(C(F)(F)F)cnc1-c1cc2c(cn1)N(CC(F)(F)C(F)(F)F)C(=O)CC2 [P9, 6-[3-ethylsulfonyl-5-(trifluoromethyl)-2-pyridyl]-1-(2,2,3,3,3-pentafluoropropyl)-3,4-dihydro-1,7-naphthyridin-2-one]
≥ 80%: mortality at 200 ppm [1] | mortality at 200 ppm [2] | mortality at 200 ppm [3] | percent effect (mortality or growth inhibition) at 200 ppm [4] | mortality at 12.5 ppm [5] | percent effect (mortality or growth inhibition) at 200 ppm [7] | percent effect (mortality or growth inhibition) at 12.5 ppm [8]

CCS(=O)(=O)c1cc(N(C)C(C)=O)cnc1-c1cc2c(cn1)N(CC(F)(F)C(F)(F)F)C(=O)OC2 [P18, N-[5-ethylsulfonyl-6-[2-oxo-1-(2,2,3,3,3-pentafluoropropyl)-4H-pyrido[3,4-d][1,3]oxazin-6-yl]-3-pyridyl]-N-methyl-acetamide]
≥ 80%: mortality at 200 ppm [1] | mortality at 200 ppm [2] | mortality at 200 ppm [3] | mortality at 24 ppm [9] | percent effect (mortality or growth inhibition) at 200 ppm [7]

CCS(=O)(=O)c1ccc(C2CC2)nc1-c1cc2c(cn1)N(CC(F)(F)C(F)(F)F)C(=O)OC2 [P17, 6-(6-cyclopropyl-3-ethylsulfonyl-2-pyridyl)-1-(2,2,3,3,3-pentafluoropropyl)-4H-pyrido[3,4-d][1,3]oxazin-2-one]
≥ 80%: mortality at 200 ppm [1] | mortality at 200 ppm [2] | mortality at 200 ppm [3] | percent effect (mortality or growth inhibition) at 200 ppm [4] | mortality at 12.5 ppm [5] | percent effect (mortality or growth inhibition) at 200 ppm [7] | percent effect (mortality or growth inhibition) at 12.5 ppm [8]

CCS(=O)(=O)c1ccc(C2CC2)nc1-c1cc2c(cn1)N(CC(F)(F)C(F)(F)F)C(=O)CC2 [P14, 6-(6-cyclopropyl-3-ethylsulfonyl-2-pyridyl)-1-(2,2,3,3,3-pentafluoropropyl)-3,4-dihydro-1,7-naphthyridin-2-one]
≥ 80%: mortality at 200 ppm [1] | mortality at 200 ppm [2] | mortality at 200 ppm [3] | percent effect (mortality or growth inhibition) at 200 ppm [4] | mortality at 12.5 ppm [5] | percent effect (mortality or growth inhibition) at 200 ppm [7] | percent effect (mortality or growth inhibition) at 12.5 ppm [8]

CCS(=O)(=O)c1ccc(-c2ncccn2)nc1-c1cc2c(cn1)N(CC(F)(F)C(F)(F)F)C(=O)CC2 [P22, 6-(3-ethylsulfonyl-6-pyrimidin-2-yl-2-pyridyl)-1-(2,2,3,3,3-pentafluoropropyl)-3,4-dihydro-1,7-naphthyridin-2-one]
≥ 80%: mortality at 200 ppm [1] | mortality at 200 ppm [2] | mortality at 200 ppm [3] | percent effect (mortality or growth inhibition) at 200 ppm [4] | mortality at 24 ppm [9] | percent effect (mortality or growth inhibition) at 200 ppm [6] | percent effect (mortality or growth inhibition) at 200 ppm [7]

CCS(=O)(=O)c1cc(C(C)(C)F)cnc1-c1cc2c(cn1)N(CC(F)(F)C(F)(F)F)C(=O)OC2 [P30, 6-[3-ethylsulfonyl-5-(1-fluoro-1-methyl-ethyl)-2-pyridyl]-1-(2,2,3,3,3-pentafluoropropyl)-4H-pyrido[3,4-d][1,3]oxazin-2-one]
≥ 80%: mortality at 200 ppm [1] | mortality at 200 ppm [3] | percent effect (mortality or growth inhibition) at 200 ppm [4] | mortality at 12.5 ppm [5] | percent effect (mortality or growth inhibition) at 200 ppm [7] | percent effect (mortality or growth inhibition) at 12.5 ppm [8]

CCS(=O)(=O)c1cc(C(C)(C)C#N)cnc1-c1cc2c(cn1)N(CC(F)(F)C(F)(F)F)C(=O)OC2 [P15, 2-[5-ethylsulfonyl-6-[2-oxo-1-(2,2,3,3,3-pentafluoropropyl)-4H-pyrido[3,4-d][1,3]oxazin-6-yl]-3-pyridyl]-2-methyl-propanenitrile]
≥ 80%: mortality at 200 ppm [1] | mortality at 200 ppm [2] | mortality at 200 ppm [3] | percent effect (mortality or growth inhibition) at 200 ppm [4] | mortality at 24 ppm [9] | percent effect (mortality or growth inhibition) at 200 ppm [6] | percent effect (mortality or growth inhibition) at 200 ppm [7]
